# Experimental data reported in USRE31731E, “Herbicidal 4-trifluoromethyl-4-nitrodiphenyl ethers” (priority 1978, dated 1984).
# Tested on: Monocots
# Assay: Herbicidal activity, preemergence, monocot weeds (Table II)
# Format: in vivo
# Details: pre-emergence, 336 h, 2 lb./A., about 2 weeks, read-out: % control (percent of plants killed)
# Protocol: (§1) Using the procedure described below, diphenyl ethers were evaluated for control of the following weeds: […]
# (§2) barnyardgrass (Echinochloa crusgalli) crabgrass (Digitaria spp.) nutsedge (Cyperus esculentus)
# (§3) At 2 and 4 pounds per acre:
# (§4) **Bermudagrass (Cynodon dactylon)
# (§5) *downy brome (Bromus tectorum) foxtail (Setaria faberii)
# (§6) Johnsongrass (Sorghum halepense) […]
# (§7) quackgrass (Agropyron repens)
# (§8) *ryegrass (Lolium perenne)
# (§9) *yellow millet (Panicum miliaceum)
# (§10) The following test procedure is employed. Seeds of selected crops and weeds are planted in soil in flats. For preemergence tests, the flats are treated with the test compound immediately after the planting. For postemergence tests, the seeds are allowed to germinate, and after 2 weeks the flats are treated with the test compound. The compound to be evaluated is dissolved in acetone, diluted with water, and sprayed over the flats using a carrier volume equivalent to 50 gallons per acre at the rate of application (pounds per acre, lb/A.) specified in the tables. About 2 weeks after the application of the test compound, the state of growth of the plants is observed and the phytotoxic effect of the compound is evaluated. Table II gives the average percent control achieved by the test compounds in terms of the percent of the plants which are killed by the compounds.
row,Structure (SMILES),pest or weed control at 2241.7 g/ha [%]
1,CNC(=O)Oc1cc(Oc2ccc(C(F)(F)F)cc2Cl)ccc1[N+](=O)[O-] [Example 33],79
2,CNC(=O)Nc1cc(Oc2ccc(C(F)(F)F)cc2Cl)ccc1[N+](=O)[O-] [Example 44],0
3,"N#Cc1cc(Oc2ccc(C(F)(F)F)cc2Cl)ccc1[N+](=O)[O-] [Example 47, 2-Chloro-α,α,α-trifluoro-p-tolyl-3-cyano-4-nitrophenyl ether]",80
4,"O=[N+]([O-])c1ccc(Oc2ccc(C(F)(F)F)cc2Cl)cc1OCC(O)CO (stereo not drawn) [Example 39, 2-chloro-α,α,α-trifluoro-p-tolyl-3-(2,3-dihydroxypropoxy)-4-nitrophenyl ether]",77
5,CS(=O)(=O)CCOc1cc(Oc2ccc(C(F)(F)F)cc2Cl)ccc1[N+](=O)[O-] [Example 42],83

# Same assay, conditions: pre-emergence, 336 h, 4 lb./A., about 2 weeks, read-out: % control (percent of plants killed)
row,Structure (SMILES),pest or weed control at 4483.4 g/ha [%]
1,CNC(=O)Oc1cc(Oc2ccc(C(F)(F)F)cc2Cl)ccc1[N+](=O)[O-] [Example 33],53
2,CNC(=O)Nc1cc(Oc2ccc(C(F)(F)F)cc2Cl)ccc1[N+](=O)[O-] [Example 44],66
3,"N#Cc1cc(Oc2ccc(C(F)(F)F)cc2Cl)ccc1[N+](=O)[O-] [Example 47, 2-Chloro-α,α,α-trifluoro-p-tolyl-3-cyano-4-nitrophenyl ether]",61
4,"O=[N+]([O-])c1ccc(Oc2ccc(C(F)(F)F)cc2Cl)cc1OCC(O)CO (stereo not drawn) [Example 39, 2-chloro-α,α,α-trifluoro-p-tolyl-3-(2,3-dihydroxypropoxy)-4-nitrophenyl ether]",65
5,CS(=O)(=O)CCOc1cc(Oc2ccc(C(F)(F)F)cc2Cl)ccc1[N+](=O)[O-] [Example 42],62

# Tested on: Dicots
# Assay: Herbicidal activity, preemergence, dicot weeds (Table II)
# Format: in vivo
# Details: pre-emergence, 336 h, 2 lb./A., about 2 weeks, read-out: % control (percent of plants killed)
# Protocol: as §1
# (§11) bindweed (Convolvulus arvensis) curly dock (Remex crispus) velvetleaf (Abutilon theophrasti) wild mustard (Brassica haber)
# (§12) At 2 and 4 pounds per acre: […]
# (§13) cocklebur (Xanthium pensylvanicum)
# (§14) **coffeeweed (Sesbania macrocarpa)
# (§15) *curly dock (Rumex crispus)
# (§16) *lambsquarters (Chenopodium album) morningglory (Ipomoea purpurea)
# (§17) *pigweed (Amaranthus retroflexus)
# (§18) **ragweed (Ambrosia artemisiifolia)
# (§19) *smartweed (Polygonum pensylvanicum)
# (§20) **tomato (Lycopersicon esculentum)
# (§21) *wild carrot (Daucus carota)
# (§22) *wild mustard (Brassica haber)
# as §10
row,Structure (SMILES),pest or weed control at 2241.7 g/ha [%]
1,CNC(=O)Oc1cc(Oc2ccc(C(F)(F)F)cc2Cl)ccc1[N+](=O)[O-] [Example 33],74
2,CNC(=O)Nc1cc(Oc2ccc(C(F)(F)F)cc2Cl)ccc1[N+](=O)[O-] [Example 44],17
3,"N#Cc1cc(Oc2ccc(C(F)(F)F)cc2Cl)ccc1[N+](=O)[O-] [Example 47, 2-Chloro-α,α,α-trifluoro-p-tolyl-3-cyano-4-nitrophenyl ether]",80
4,"O=[N+]([O-])c1ccc(Oc2ccc(C(F)(F)F)cc2Cl)cc1OCC(O)CO (stereo not drawn) [Example 39, 2-chloro-α,α,α-trifluoro-p-tolyl-3-(2,3-dihydroxypropoxy)-4-nitrophenyl ether]",80
5,CS(=O)(=O)CCOc1cc(Oc2ccc(C(F)(F)F)cc2Cl)ccc1[N+](=O)[O-] [Example 42],60

# Same assay, conditions: pre-emergence, 336 h, 4 lb./A., about 2 weeks, read-out: % control (percent of plants killed)
row,Structure (SMILES),pest or weed control at 4483.4 g/ha [%]
1,CNC(=O)Oc1cc(Oc2ccc(C(F)(F)F)cc2Cl)ccc1[N+](=O)[O-] [Example 33],99
2,CNC(=O)Nc1cc(Oc2ccc(C(F)(F)F)cc2Cl)ccc1[N+](=O)[O-] [Example 44],96
3,"N#Cc1cc(Oc2ccc(C(F)(F)F)cc2Cl)ccc1[N+](=O)[O-] [Example 47, 2-Chloro-α,α,α-trifluoro-p-tolyl-3-cyano-4-nitrophenyl ether]",40
4,"O=[N+]([O-])c1ccc(Oc2ccc(C(F)(F)F)cc2Cl)cc1OCC(O)CO (stereo not drawn) [Example 39, 2-chloro-α,α,α-trifluoro-p-tolyl-3-(2,3-dihydroxypropoxy)-4-nitrophenyl ether]",99
5,CS(=O)(=O)CCOc1cc(Oc2ccc(C(F)(F)F)cc2Cl)ccc1[N+](=O)[O-] [Example 42],80

# Tested on: Monocots
# Assay: Herbicidal activity, postemergence, monocot weeds (Table II)
# Format: in vivo
# Details: post-emergence, 336 h, 2 lb./A., about 2 weeks, read-out: % control (percent of plants killed)
# Protocol: as §1, §2, §3, §4, §5, §6, §7, §8, §9, §10
row,Structure (SMILES),pest or weed control at 2241.7 g/ha [%]
1,CNC(=O)Oc1cc(Oc2ccc(C(F)(F)F)cc2Cl)ccc1[N+](=O)[O-] [Example 33],65
2,CNC(=O)Nc1cc(Oc2ccc(C(F)(F)F)cc2Cl)ccc1[N+](=O)[O-] [Example 44],7
3,"N#Cc1cc(Oc2ccc(C(F)(F)F)cc2Cl)ccc1[N+](=O)[O-] [Example 47, 2-Chloro-α,α,α-trifluoro-p-tolyl-3-cyano-4-nitrophenyl ether]",24
4,"O=[N+]([O-])c1ccc(Oc2ccc(C(F)(F)F)cc2Cl)cc1OCC(O)CO (stereo not drawn) [Example 39, 2-chloro-α,α,α-trifluoro-p-tolyl-3-(2,3-dihydroxypropoxy)-4-nitrophenyl ether]",61
5,CS(=O)(=O)CCOc1cc(Oc2ccc(C(F)(F)F)cc2Cl)ccc1[N+](=O)[O-] [Example 42],63

# Same assay, conditions: post-emergence, 336 h, 4 lb./A., about 2 weeks, read-out: % control (percent of plants killed)
row,Structure (SMILES),pest or weed control at 4483.4 g/ha [%]
1,CNC(=O)Oc1cc(Oc2ccc(C(F)(F)F)cc2Cl)ccc1[N+](=O)[O-] [Example 33],32
2,CNC(=O)Nc1cc(Oc2ccc(C(F)(F)F)cc2Cl)ccc1[N+](=O)[O-] [Example 44],60
3,"N#Cc1cc(Oc2ccc(C(F)(F)F)cc2Cl)ccc1[N+](=O)[O-] [Example 47, 2-Chloro-α,α,α-trifluoro-p-tolyl-3-cyano-4-nitrophenyl ether]",11
4,"O=[N+]([O-])c1ccc(Oc2ccc(C(F)(F)F)cc2Cl)cc1OCC(O)CO (stereo not drawn) [Example 39, 2-chloro-α,α,α-trifluoro-p-tolyl-3-(2,3-dihydroxypropoxy)-4-nitrophenyl ether]",64
5,CS(=O)(=O)CCOc1cc(Oc2ccc(C(F)(F)F)cc2Cl)ccc1[N+](=O)[O-] [Example 42],38

# Tested on: Dicots
# Assay: Herbicidal activity, postemergence, dicot weeds (Table II)
# Format: in vivo
# Details: post-emergence, 336 h, 2 lb./A., about 2 weeks, read-out: % control (percent of plants killed)
# Protocol: as §1, §11, §12, §13, §14, §15, §16, §17, §18, §19, §20, §21, §22, §10
row,Structure (SMILES),pest or weed control at 2241.7 g/ha [%]
1,CNC(=O)Oc1cc(Oc2ccc(C(F)(F)F)cc2Cl)ccc1[N+](=O)[O-] [Example 33],100
2,CNC(=O)Nc1cc(Oc2ccc(C(F)(F)F)cc2Cl)ccc1[N+](=O)[O-] [Example 44],10
3,"N#Cc1cc(Oc2ccc(C(F)(F)F)cc2Cl)ccc1[N+](=O)[O-] [Example 47, 2-Chloro-α,α,α-trifluoro-p-tolyl-3-cyano-4-nitrophenyl ether]",84
4,"O=[N+]([O-])c1ccc(Oc2ccc(C(F)(F)F)cc2Cl)cc1OCC(O)CO (stereo not drawn) [Example 39, 2-chloro-α,α,α-trifluoro-p-tolyl-3-(2,3-dihydroxypropoxy)-4-nitrophenyl ether]",100
5,CS(=O)(=O)CCOc1cc(Oc2ccc(C(F)(F)F)cc2Cl)ccc1[N+](=O)[O-] [Example 42],88

# Same assay, conditions: post-emergence, 336 h, 4 lb./A., about 2 weeks, read-out: % control (percent of plants killed)
row,Structure (SMILES),pest or weed control at 4483.4 g/ha [%]
1,CNC(=O)Oc1cc(Oc2ccc(C(F)(F)F)cc2Cl)ccc1[N+](=O)[O-] [Example 33],98
2,CNC(=O)Nc1cc(Oc2ccc(C(F)(F)F)cc2Cl)ccc1[N+](=O)[O-] [Example 44],98
3,"N#Cc1cc(Oc2ccc(C(F)(F)F)cc2Cl)ccc1[N+](=O)[O-] [Example 47, 2-Chloro-α,α,α-trifluoro-p-tolyl-3-cyano-4-nitrophenyl ether]",72
4,"O=[N+]([O-])c1ccc(Oc2ccc(C(F)(F)F)cc2Cl)cc1OCC(O)CO (stereo not drawn) [Example 39, 2-chloro-α,α,α-trifluoro-p-tolyl-3-(2,3-dihydroxypropoxy)-4-nitrophenyl ether]",98
5,CS(=O)(=O)CCOc1cc(Oc2ccc(C(F)(F)F)cc2Cl)ccc1[N+](=O)[O-] [Example 42],98
